≈ marks a conversion by molar mass, not a printed value. Read-outs that look alike come from different tables or passages of the source.
Legend:
[1] = system: CCD 841 CoN; test: MTT viability assay, normal colon epithelial cells; format: cell-based, human; details: for Cell viability: CCD 841 CoN, 24 h; for IC50: Homo sapiens, CCD-841CoN
Excerpt: (§1) Cell lines of different origins were used in the study and grouped as follows: prostate panel (human prostate carcinomas: DU145, derived from metastatic site: brain; grade IV PC3, derived from metastatic site: bone; LNCaP, derived from the metastatic site: lymph node; prostate epithelial, PNT2), colon panel (colorectal adenocarcinomas: HT29, originating from a primary tumor; Duke’s type C DLD-1, with the potential to lymph node metastasis; highly metastatic HCT116; colon epithelial cells CCD 841 CoN), thyroid panel (follicular thyroid carcinoma FTC133, anaplastic thyroid carcinoma 8505C, papillary thyroid carcinoma TPC-1, normal thyroid follicular epithelial Nthy-ori 3–1), breast panel (ER-positive breast adenocarcinoma MCF7, ER-negative breast adenocarcinoma MDA-MB-231, breast epithelial MCF10A), brain panel (neuroblastoma SH-SY5Y, glioblastoma U-87 MG, murine astrocytes C8D1A). All cell lines were purchased from Merck (Darmstadt, Germany).
(§2) Cells were grown under standard conditions (37 °C, 5% CO2) and culture media (DMEM/F12 for PNT2, PC3, FTC133, 8505 C, MDA-MB-231, TPC-1; DMEM Low Glucose for DU145; DMEM High Glucose for HCT116, DLD-1, SH-SY5Y, U87MG, C8D1A; MEM with NEAA for MCF7; MEM for CCD 841 CoN; McCoy’s for HT29; RPMI1640 with sodium pyruvate for LNCaP; DMEM/F12 with 20 ng/mL epidermal growth factor (EGF), 10 μg/mL insulin, 0.5 μg/mL hydrocortisone, 100 ng/mL cholera toxin) for MCF10A), supplemented with 10% fetal bovine serum (FBS) or 5% donor horse serum for MCF10A, and 1% antibiotics solution (10,000 U penicillin and 10 mg streptomycin/mL). The tested substances were prepared as 10 mg/mL stock solutions in DMSO and further diluted in the culture media to the working concentrations. Cells were treated with UA enantiomers at the concentration range of 0–50 µg/mL. The influence of DMSO on cell viability was also examined, with the final concentration […], and no toxic effect was noted.
(§3) The cells were seeded onto 96-well plates at a density of 1.5 × 10^4 cells/well. After 24 h UA enantiomers were added. Cell viability was determined after 24, 48, and 72 h by the MTT assay, as described previously. Doxorubicin was used as a reference cytostatic drug. All analyses were performed in triplicate; cell viability was expressed as % of control, untreated cells (mean ± SD), and IC50 values (concentration at which cell viability is inhibited by 50%), if possible.

[2] = system: C8D1A; test: MTT viability assay, normal astrocytes C8D1A; format: cell-based, murine; details: C8D1A, 24 h
Excerpt: as §1, §2, §3

[3] = system: LNCaP; test: MTT viability assay, LNCaP prostate cancer cells; format: cell-based, human; details: for Cell viability: 24 h; for IC50: Homo sapiens
Excerpt: as §1, §2, §3

[4] = system: TPC-1; test: MTT viability assay, TPC-1 papillary thyroid carcinoma cells; format: cell-based, human; details: for IC50: Homo sapiens, TPC1; for Cell viability: TPC-1, 24 h
Excerpt: as §1, §2, §3
(§4) The selectivity index (SI) was calculated, if possible, by dividing the IC50 value obtained for non-cancerous cells line by the IC50 values obtained for appropriate cancer cell line, as described previously. […] The values above 3 indicate good selectivity.

[5] = system: FTC133; test: MTT viability assay, FTC133 follicular thyroid carcinoma cells; format: cell-based, human; details: for Cell viability: FTC-133, 24 h; for IC50: Homo sapiens, FTC-133
Excerpt: as §1, §2, §3, §4

[6] = system: HT29 cells; details: cited from earlier work
[7] = system: U87MG; test: MTT viability assay, glioblastoma U87MG cells; format: cell-based, human; details: 24 h
Excerpt: as §1, §2, §3

[8] = system: 8505C; test: MTT viability assay, 8505C anaplastic thyroid carcinoma cells; format: cell-based, human; details: for Cell viability: 24 h; for IC50: Homo sapiens
Excerpt: as §1, §2, §3

[9] = system: PC3; test: MTT viability assay, PC3 prostate cancer cells; format: cell-based, human; details: for IC50: Homo sapiens, PC-3; for Cell viability: PC3, 24 h
Excerpt: as §1, §2, §3, §4

[10] = system: MCF10A; test: MTT viability assay, normal breast epithelial cells; format: cell-based, human; details: for IC50: Homo sapiens, MCF-10A, MCF10A normal cells; for Cell viability: MCF10A, 24 h
Excerpt: as §1, §2, §3

## CC(=O)C1=C(O)C=C2Oc3c(C(C)=O)c(O)c(C)c(O)c3[C@@]2(C)C1=O [UA(+), (+)-usnic acid]
[1]; 2.5 µg/mL
  Cell viability: 104.22 % of control
[1]; 5 µg/mL
  Cell viability: 103.61 % of control
[1]; 10 µg/mL
  Cell viability: 99.72 % of control
[1]; 20 µg/mL
  Cell viability: 111.77 % of control
[1]; 30 µg/mL
  Cell viability: 101.26 % of control
[1]; 40 µg/mL
  Cell viability: 95.35 % of control
[1]; 50 µg/mL
  Cell viability: 96.52 % of control
[1]; 48 h
  IC50: > 50 µg/mL
[1]; 72 h
  IC50: > 50 µg/mL
[2]; 2.5 µg/mL
  Cell viability: 110.33 % of control
[2]; 5 µg/mL
  Cell viability: 110.17 % of control
[2]; 10 µg/mL
  Cell viability: 96.58 % of control
[2]; 20 µg/mL
  Cell viability: 91.17 % of control
[2]; 30 µg/mL
  Cell viability: 88.67 % of control
[2]; 40 µg/mL
  Cell viability: 86.17 % of control
[2]; 50 µg/mL
  Cell viability: 106.42 % of control
[3]; 2.5 µg/mL
  Cell viability: 87.68 % of control
[3]; 5 µg/mL
  Cell viability: 81.45 % of control
[3]; 10 µg/mL
  Cell viability: 79.71 % of control
[3]; 20 µg/mL
  Cell viability: 75.51 % of control
[3]; 30 µg/mL
  Cell viability: 71.45 % of control
[3]; 40 µg/mL
  Cell viability: 69.13 % of control
[3]; 50 µg/mL
  Cell viability: 69.71 % of control
[3]; 48 h
  IC50: > 50 µg/mL
[3]; 72 h
  IC50: > 50 µg/mL
[4]; TPC-1, 48 h
  IC50: > 50 µg/mL
[4]; TPC-1, 72 h
  IC50: 28.2 µg/mL (≈ 81.9 µM)
[4]; IC50 Nthy ori 3-1 / IC50 TPC-1, 72 h
  selectivity index (SI): 1.18
[4]; 2.5 µg/mL
  Cell viability: 101.62 % of control
[4]; 5 µg/mL
  Cell viability: 105.96 % of control
[4]; 10 µg/mL
  Cell viability: 105.31 % of control
[4]; 20 µg/mL
  Cell viability: 97.02 % of control
[4]; 30 µg/mL
  Cell viability: 95.96 % of control
[4]; 40 µg/mL
  Cell viability: 91.23 % of control
[4]; 50 µg/mL
  Cell viability: 87.50 % of control
[5]; 2.5 µg/mL
  Cell viability: 92.33 % of control
[5]; 5 µg/mL
  Cell viability: 89.00 % of control
[5]; 10 µg/mL
  Cell viability: 89.83 % of control
[5]; 20 µg/mL
  Cell viability: 93.83 % of control
[5]; 30 µg/mL
  Cell viability: 74.75 % of control
[5]; 40 µg/mL
  Cell viability: 75.75 % of control
[5]; 50 µg/mL
  Cell viability: 78.08 % of control
[5]; FTC133, 48 h
  IC50: > 50 µg/mL
[5]; FTC133, 72 h
  IC50: 35.1 µg/mL (≈ 102 µM)
[5]; IC50 Nthy ori 3-1 / IC50 FTC133, 72 h
  selectivity index (SI): 0.95
[6]; HT29, recalculated from µM by the authors, ref 21
  IC50: 24.1 µg/mL
[6]; HT29, recalculated from µM by the authors, ref 22
  IC50: 34.3 µg/mL
[6]; HT29, ref 21, read-out: IC50
  IC50: 70 µM
[6]; HT29, ref 22, read-out: IC50
  IC50: 99.7 µM
[7]; 5 µg/mL
  Cell viability: 99.21 % of control
[7]; 10 µg/mL
  Cell viability: 98.61 % of control
[7]; 30 µg/mL
  Cell viability: 101.76 % of control
[7]; 40 µg/mL
  Cell viability: 92.73 % of control
[7]; 50 µg/mL
  Cell viability: 95.00 % of control
[8]; 2.5 µg/mL
  Cell viability: 102.52 % of control
[8]; 5 µg/mL
  Cell viability: 103.05 % of control
[8]; 10 µg/mL
  Cell viability: 98.80 % of control
[8]; 20 µg/mL
  Cell viability: 102.26 % of control
[8]; 30 µg/mL
  Cell viability: 99.47 % of control
[8]; 40 µg/mL
  Cell viability: 102.26 % of control
[8]; 50 µg/mL
  Cell viability: 108.63 % of control
[8]; 48 h
  IC50: > 50 µg/mL
[8]; 72 h
  IC50: > 50 µg/mL
[9]; PC3, 48 h
  IC50: 39.6 µg/mL (≈ 115 µM)
[9]; PC3, 72 h
  IC50: 19.1 µg/mL (≈ 55.5 µM)
[9]; IC50 PNT2 / IC50 PC3, 48 h
  selectivity index (SI): 0.94
[9]; IC50 PNT2 / IC50 PC3, 72 h
  selectivity index (SI): 1.07
[9]; 2.5 µg/mL
  Cell viability: 100.80 % of control
[9]; 5 µg/mL
  Cell viability: 99.30 % of control
[9]; 10 µg/mL
  Cell viability: 104.63 % of control
[9]; 20 µg/mL
  Cell viability: 96.62 % of control
[9]; 30 µg/mL
  Cell viability: 83.08 % of control
[9]; 40 µg/mL
  Cell viability: 70.10 % of control
[9]; 50 µg/mL
  Cell viability: 64.83 % of control
[10]; 48 h
  IC50: > 50 µg/mL
[10]; 72 h
  IC50: 44.8 µg/mL (≈ 130 µM)
[10]; 2.5 µg/mL
  Cell viability: 95.69 % of control
[10]; 5 µg/mL
  Cell viability: 98.53 % of control
[10]; 10 µg/mL
  Cell viability: 94.31 % of control
[10]; 20 µg/mL
  Cell viability: 97.06 % of control
[10]; 30 µg/mL
  Cell viability: 97.25 % of control
[10]; 40 µg/mL
  Cell viability: 97.35 % of control
[10]; 50 µg/mL
  Cell viability: 94.02 % of control

Reference: article PMC12298648, “An Evaluation of the Cytotoxicity and Safety Profile of Usnic Acid for a Broad Panel of Human Cancers and Normal Cells with Respect to Its Enantiospecificity” (Molecules, 2025)
